The text below walks through data of patent US3956487A, “Novel antifungal antibiotic substance, and agricultural and horticultural fungicidal composition containing said substance” (Nihon Tokushu Noyaku Seizo Kabushiki Kaisha, priority 1974, dated 1976).

Series [1] has as its system Brown rot (Sclerotinia cineria). As to the kind of experiment: Field test on brown rot of peach. It counts as in vivo. As to conditions: for Morbidity after 7 days since packaging: room temperature storage. The source says:
Test on Brown rot (Sclerotinia cineria) of peach (field test):
Both the morbidity upon harvest and morbidity of the fruit packed in a cardboard box for storage at room temperature were investigated.

Series [2] concerns Gray mold fungus. As to the kind of experiment: Preventive test on gray mold of bean leaves.
Series [3] has as its system Sclerotinia rot fungus. As to the kind of experiment: Preventive test on sclerotinia rot of bean leaves.
A further series deals with Vibrio comma 904. Kind of series: MIC, agar dilution method. The class given is cell-based.
In another series the test system is Xanthomonas citri. Kind of series: MIC, agar dilution method. It counts as cell-based.
In series [4] the test system is Staphylococcus aureus FDA 209 p.
The test system of series [5] is Bacillus subtilis PCI 219.
The test system of series [6] is Sclerotinia cinerea. Conditions: 72 hours.
The next series deals with Botorytis cinerea. As to conditions: 48 hours.
The subject of series [7] is Sclerotinia cinerea. As to conditions: 200 mcg/ml solution, 2 days at 27°C.
Another series relates to Mice. Conditions: for LD50: mice; for No abnormality (dose): mouse, in vivo.
Experiment in series [8]: not given
The source holds these as a separate data set.

Series [9] deals with Sclerotinia rot fungus. As to conditions: curative, 48 hours.
The subject of the next series is crops. As to conditions: ordinary dosages.
The test system of series [10] is Gray mold fungus. As to the kind of experiment: Curative test on gray mold of bean leaves. As to conditions: 48 hours.
Where [11] appears, read: 50 ppm, sprayed twice, 7-day interval.

In brackets after ≈: the same amount, converted by molar mass. Where two headings read alike, the source gives them in different places.

Take `CCCCNC(=O)n1c(NC(=O)OC)nc2ccccc21` [BENLATE, methyl-1-(butylcarbamoyl)-2-benzimidazole carbamate]: in [1] (50% product × 1000), the Morbidity upon harvest is listed as 0.3 and the “Morbidity after 7 days since packaging” value is 46.1.
Take `CC(N)C(=O)NC1COC(O)C(N)C1O.Cl` (stereo not shown): the “Diameter of disease spot” value was 23 mm with Gray mold fungus [2] (25 ppm), 10 mm in the series on Gray mold fungus [2] (50 ppm), 10 mm in the series on Sclerotinia rot fungus [3] (25 ppm) and 0 mm with Sclerotinia rot fungus [3] (50 ppm). Moreover, the “Disease spot inhibiting rate” value in the series with Gray mold fungus [2] (25 ppm) turned out to be 23%; in the series with Gray mold fungus [2] (50 ppm) it was 67%; with Sclerotinia rot fungus [3] (25 ppm), 71%; in the series on Sclerotinia rot fungus [3] (50 ppm), 100%.
In the case of `CC(N)C(=O)NC1COC(O)C(N)C1O` (stereo not shown), the “minimum inhibitory concentration (MIC)” value in the series on Vibrio comma 904 (24 hours) was 12.5 mg/L (≈ 57 µM); in the series on Vibrio comma 904 (48 hours) it was 100 mg/L (≈ 456 µM); with Xanthomonas citri (48 hours), greater than 100 mg/L; in the series on Xanthomonas citri (72 hours), greater than 100 mg/L; in [4] (24 hours), greater than 100 mg/L; in series [4] (48 hours), greater than 100 mg/L. Also, the “minimum inhibitory concentration (MIC)” value is 3.12 mg/L (≈ 14.2 µM) with Sarcina lutea PCI 1001 (24 hours); 3.12 mg/L (≈ 14.2 µM) in the series with Sarcina lutea PCI 1001 (48 hours); greater than 100 mg/L in [5] (24 hours); greater than 100 mg/L in [5] (48 hours); greater than 100 mg/L in the series on Mycobacterium ATCC 607 (24 hours); greater than 100 mg/L with Mycobacterium ATCC 607 (48 hours). Also, the “minimum inhibitory concentration (MIC)” value with Escherichia coli NIHJ (24 hours) is 100 mg/L (≈ 456 µM); in the series with Escherichia coli NIHJ (48 hours), greater than 100 mg/L; in the series on Candida albicans (48 hours) it was greater than 100 mg/L; in the series on Candida albicans (72 hours) it was greater than 100 mg/L; with Saccharomyces cerevisiae (48 hours), greater than 100 mg/L; in the series on Saccharomyces cerevisiae (72 hours), greater than 100 mg/L. The “minimum inhibitory concentration (MIC)” value is 25 mg/L (≈ 114 µM) in the series on Holmodendrum pedrosei (48 hours); 25 mg/L (≈ 114 µM) in the series on Holmodendrum pedrosei (72 hours); 100 mg/L (≈ 456 µM) in the series on Trichophyton rubrum (48 hours); greater than 100 mg/L with Trichophyton rubrum (72 hours); 25 mg/L (≈ 114 µM) with Ophiobolus miyabianus (48 hours); 25 mg/L (≈ 114 µM) in the series with Ophiobolus miyabianus (72 hours). The “minimum inhibitory concentration (MIC)” value was greater than 100 mg/L in the series with Aspergillus niger (48 hours); greater than 100 mg/L in the series on Aspergillus niger (72 hours); 50 mg/L (≈ 228 µM) with Xanthomonas oryzae (48 hours); 100 mg/L (≈ 456 µM) with Xanthomonas oryzae (72 hours); 50 mg/L (≈ 228 µM) in the series with Alternaria japonica (48 hours); 50 mg/L (≈ 228 µM) in the series on Alternaria japonica (72 hours). In addition, the “minimum inhibitory concentration (MIC)” value is greater than 100 mg/L with Alternaria kikuchiana (48 hours); greater than 100 mg/L in the series on Alternaria kikuchiana (72 hours); 25 mg/L (≈ 114 µM) with Sclerotinia cinerea [6]; 1.56 mg/L (≈ 7.12 µM) in the series on Sclerotinia sclerotiorum (48 hours); 3.12 mg/L (≈ 14.2 µM) with Sclerotinia sclerotiorum (72 hours); 6.25 mg/L (≈ 28.5 µM) with Botorytis fabae (48 hours). For the same compound, the “minimum inhibitory concentration (MIC)” value with Botorytis fabae (72 hours) was determined as 25 mg/L (≈ 114 µM); with Botorytis cinerea, 6.25 mg/L (≈ 28.5 µM). Further, in series [1] (setting [11]), the Morbidity upon harvest is 0. In [1] (setting [11]), the “Morbidity after 7 days since packaging” value is on record as 0. Moreover, the inhibition zone diameter entry in the series on Sclerotinia cinerea [7] is “about 35 mm”. Besides, the LD50 (commonly the dose at which mortality reaches 50%) worked out at 160 mg/kg in the series on Mice (intravenous injection) and 750 mg/kg in the series with Mice (oral administration). In addition, the “No abnormality (dose)” value is given as 125 mg/kg with Mice (iv) and 500 mg/kg in the series on Mice (po). For the same compound, the “no trouble (concentration)” value with Young carp is recorded as 250 ppm. For the same compound, the “Solubility in dimethyl sulfoxide” value (dimethyl sulfoxide) was “Soluble”. Further, the Solubility in ethanol result (ethanol) is listed as “sparingly soluble”. For the same compound, where the note is “methanol”, the Solubility in methanol entry is reported as “Soluble”. For the same compound, the stability on standing entry in [8] (allowed to stand for a long time) is “activity became lower and it coloured in yellow”. Besides, the retention of activity result in [8] (in an acidic solution) is “retains its activity”; in series [8] (solution neutral to alkaline), “activity is reduced”. Further, the stability result in series [8] (in the form of aqueous solution) is recorded as “very stable”. Besides, the “Diameter of the disease spot after spraying” value is listed as 19.6 mm in the series on Sclerotinia rot fungus [9] (50 ppm); 16.3 mm with Sclerotinia rot fungus [9] (100 ppm); 19.3 mm in the series with Gray mold fungus [10] (25 ppm); 17.0 mm in the series on Gray mold fungus [10] (50 ppm); 16.3 mm in the series with Gray mold fungus [10] (100 ppm). Moreover, the “Disease spot inhibiting rate” value in the series with Sclerotinia rot fungus [9] (50 ppm) was 62%; in the series with Sclerotinia rot fungus [9] (100 ppm), 76%; with Gray mold fungus [10] (25 ppm), 59%; in the series on Gray mold fungus [10] (50 ppm), 75%; in the series with Gray mold fungus [10] (100 ppm), 81%. The phytotoxicity to crops result in the series on crops is “does not give phytotoxicity to crops”. For the same compound, in the series with various bacteria, the antibacterial action entry is “only weak antibacterial action”.
As for `CC1(C)OC(=O)N(c2cc(Cl)cc(Cl)c2)C1=O` [Sclex, 3-(3,5-dichlorophenyl)-5,5-dimethyloxazolidinedione-2,4], in series [1] (20% product × 1500), the Morbidity upon harvest came out at 0.03 and the “Morbidity after 7 days since packaging” value is on record as 7.7. Moreover, in the series on Gray mold fungus [10] (20% product × 1000 (200 ppm)), the “Diameter of the disease spot after spraying” value is on record as 17.7 mm and the “Disease spot inhibiting rate” value stood at 61%.
